# From patent US6727253B2, “Treatment of accidental extravasation of anthracyclines” (Antianthra APS, priority 1999, dated 2004)
# Where two headings read alike, the source gives them in different places.
# Key:
# [1] = tested on: extravasation of doxorubicin in a patient; test: Clinical results in a patient with doxorubicin extravasation; type: in vivo
# [2] = tested on: wound after daunorubicin SC in swine; test: Pilot study on swine, daunorubicin SC; type: in vivo; conditions: 1 ml daunorubicin SC
# Experimental: (§1) A danish porker weighting approximately 30 kg was used. The animals were fully anesthesized and artificially ventilated during SC injection of 1 ml of anthracycline.
# [3] = tested on: SC daunorubicin induced wounds in mice; conditions: for AUC / DW / FW / TTW: Table A
# Experimental: The mice were euthanized after healing of all wounds.
# The effect of various doses of ICRF-187 was investigated in Example 3.
# Comparison of two concentrations of sc daunorubicin were compared with and without simultaneous treatment with ICRF-187 250 mg/kg.
# ICRF-187 was administered at the same time as daunorubicin, 3 hours after, and 6 hours after, respectively. Saline served as control. The dose of daunorubicin was 3 mg/kg so and ICRF-187 was administered IP in a 250 mg/kg solution. Twenty-eight mice were used. The results are depicted in data sheet #6 and the mean AUCs are shown graphically in FIG. 5.
# 100 mg/kg ICRF-187 was injected into the subcutaneous papule produced by injected daunorubicin. This treatment was compared to intralesional saline control, IP saline control, and IP treatment with ICRF-187.
# […]. Seven experiments (n=6, 7, 7, 9, 9, 9, and 9) with 3 mg/kg daunorubicin SC plus saline IP at t=0 and seven experiments (n=6, 7, 7, 9, 9, 8, and 9) with 3 mg/kg daunorubicin SC plus 250 mg/kg ICRF-187 IP at t=0tin two experiments (n=9 and 4) the ICRF-187 doses were 62,5 mg/kg and 375 mg/kg IP, respectively, in two (n=7 and 9) the dose was 125 mg/kg. ICRF-187 250 mg/kg was administered IV in one (n=9).
# [4] = tested on: wound after doxorubicin SC in swine; test: Pilot study on swine, doxorubicin SC; type: in vivo; conditions: 3 mg doxorubicin SC, ICRF-187 25 mg/kg IV at t=0
# Experimental: as §1
# [5] = Example 3, daunorubicin 3 mg/kg sc + ICRF-187 250 mg/kg IP
# [6] = Example 3, daunorubicin 3 mg/kg sc + ICRF-187 375 mg/kg IP
# [7] = Example 4, daunorubicin 1 mg/kg sc + ICRF-187 250 mg/kg IP simultaneous
# [8] = Example 4, daunorubicin 3 mg/kg sc + ICRF-187 250 mg/kg IP simultaneous
# [9] = Example 5, daunorubicin 1 mg/kg sc + ICRF-187 250 mg/kg IP
# [10] = Example 5, daunorubicin 3 mg/kg sc + ICRF-187 250 mg/kg IP
# [11] = Example 6, daunorubicin 3 mg/kg sc + ICRF-187 250 mg/kg IP 3 hours after daunorubicin
# [12] = Example 6, daunorubicin 3 mg/kg sc + ICRF-187 250 mg/kg IP 6 hours after daunorubicin
# [13] = Example 6, daunorubicin 3 mg/kg sc + ICRF-187 250 mg/kg IP at the same time
# [14] = Example 7, daunorubicin 3 mg/kg sc + 0.05 ml ICRF-187 100 mg/kg IL
# [15] = Example 7, daunorubicin 3 mg/kg sc + ICRF-187 250 mg/kg IP
# [16] = daunorubicin 1 mg/kg SC + DEX 250 mg/kg IP at t=0, pooled data
# [17] = daunorubicin 3 mg/kg SC + DEX 125 mg/kg IP at t=0, +3h and +6h
# [18] = daunorubicin 3 mg/kg SC + DEX 125 mg/kg IP at t=0, pooled data
# [19] = daunorubicin 3 mg/kg SC + DEX 250 mg/kg IP at t=0, pooled data
# [20] = daunorubicin 3 mg/kg SC + DEX 250 mg/kg IP at t=0, pooled data, listed as DEX
# [21] = daunorubicin 3 mg/kg SC + DEX 250 mg/kg IP at t=+3h
# [22] = daunorubicin 3 mg/kg SC + DEX 250 mg/kg IP at t=+6h
# [23] = daunorubicin 3 mg/kg SC + DEX 250 mg/kg IP day 0, 1, and 2
# [24] = daunorubicin 3 mg/kg SC + DEX 250 mg/kg IV at t=0
# [25] = daunorubicin 3 mg/kg SC + DEX 375 mg/kg IP at t=0
# [26] = daunorubicin 3 mg/kg SC + DEX 62,5 mg/kg IP at t=0
# [27] = daunorubicin 3 mg/kg SC + DEX 62,5 mg/kg IP at t=0, +3h and +6h
# [28] = pooled, daunorubicin 3 mg/kg SC, ICRF-187 250 mg/kg IP at t=0, p<0.0001
smiles,measurement,setting,value
"C[C@@H](CN1CC(=O)NC(=O)C1)N1CC(=O)NC(=O)C1 [ICRF-187, (+)-1,2-bis(3,5-dioxopiperazinyl-1-yl)propane]",ulcer or skin-necrosis,"[1]; 149 mg doxorubicin infused subcutaneously, ICRF-187 day 1-3, 30 days evaluation",No ulcer or signs of skin-necrosis developed
same,side effects from the treatment,"[1]; ICRF-187 1000, 1000, 500 mg/m^2 on day 1, 2, 3, initiated 2 h 30 m after extravasation",no side effects
same,wound appearance,[2]; ICRF-187 25 mg/kg IV daily for three days,no wound appeared
same,wound appearance,[2]; ICRF-187 50 mg/kg IV at t=0,a small wound appeared
same,Mean AUC,[3]; [5],395 mm^2 × days
same,Mean DWw ± SEM,[3]; [5],29.2 ± 1.1 days
same,Mean TTWw ± SEM,[3]; [5],7.8 ± 1.1 days
same,Nw/NG,[3]; [5],83%
same,Mean AUC,[3]; [6],57 mm^2 × days
same,Mean DWw ± SEM,[3]; [6],27.0 ± 0.0 days
same,Mean TTWw ± SEM,[3]; [6],4.0 ± 0.0 days
same,Nw/NG,[3]; [6],25%
same,reduction of the AUC,"[3]; Example 3, daunorubicin 3 mg/kg sc, ICRF-187 250 mg/kg vs saline, p<0.05",48%
same,reduction of the AUC,"[3]; Example 3, daunorubicin 3 mg/kg sc, ICRF-187 375 mg/kg vs saline, p<0.05",93%
same,reduction in AUC,"[3]; Example 4, daunorubicin 1 mg/kg sc (low dose), ICRF-187 250 mg/kg IP, p<0.05",100%
same,Mean AUC,[3]; [7],0 mm^2 × days
same,Nw/NG,[3]; [7],0%
same,reduction in AUC,"[3]; Example 4, daunorubicin 3 mg/kg sc (high dose), ICRF-187 250 mg/kg IP, p<0.05",75%
same,Mean AUC,[3]; [8],313 mm^2 × days
same,Mean DWw ± SEM,[3]; [8],14.0 ± 1.5 days
same,Mean TTWw ± SEM,[3]; [8],12.0 ± 3.5 days
same,Nw/NG,[3]; [8],43%
same,Mean AUC,[3]; [9],50 mm^2 × days
same,Mean DWw ± SEM,[3]; [9],16.0 ± 4.0 days
same,Mean TTWw ± SEM,[3]; [9],10.5 ± 3.5 days
same,Nw/NG,[3]; [9],22%
same,reduction of AUC,"[3]; Example 5, daunorubicin 1 mg/kg sc, ICRF-187 250 mg/kg IP, p<0.05",73%
same,Mean AUC,[3]; [10],158 mm^2 × days
same,Mean DWw ± SEM,[3]; [10],13.7 ± 1.7 days
same,Mean TTWw ± SEM,[3]; [10],9.9 ± 1.8 days
same,Nw/NG,[3]; [10],78%
same,reduction of AUC,"[3]; Example 5, daunorubicin 3 mg/kg sc, ICRF-187 250 mg/kg IP, p<0.05",83%
same,Mean AUC,[3]; [11],421 mm^2 × days
same,Mean DWw ± SEM,[3]; [11],21.0 ± 4.0 days
same,Mean TTWw ± SEM,[3]; [11],7.0 ± 0.6 days
same,Nw/NG,[3]; [11],43%
same,Mean AUC,[3]; [12],926 mm^2 × days
same,Mean DWw ± SEM,[3]; [12],24.9 ± 0.8 days
same,Mean TTWw ± SEM,[3]; [12],6.7 ± 0.6 days
same,Nw/NG,[3]; [12],100%
same,Mean AUC,[3]; [13],326 mm^2 × days
same,Mean DWw ± SEM,[3]; [13],19.6 ± 0.7 days
same,Mean TTWw ± SEM,[3]; [13],7.7 ± 0.5 days
same,Nw/NG,[3]; [13],100%
same,AUC reduced,"[3]; Example 6, daunorubicin 3 mg/kg sc, ICRF-187 250 mg/kg IP 6 hours delay, statistically non-significant",34%
same,AUC reduced,"[3]; Example 6, daunorubicin 3 mg/kg sc, ICRF-187 250 mg/kg IP at t=0, p<0.05",77%
same,AUC reduced,"[3]; Example 6, daunorubicin 3 mg/kg sc, ICRF-187 250 mg/kg IP at t=+3 hours, p<0.05",70%
same,Mean AUC,[3]; [14],403 mm^2 × days
same,Mean DWw ± SEM,[3]; [14],19.4 ± 2.3 days
same,Mean TTWw ± SEM,[3]; [14],6.9 ± 1.6 days
same,Nw/NG,[3]; [14],78%
same,Mean AUC,[3]; [15],562 mm^2 × days
same,Mean DWw ± SEM,[3]; [15],19.0 ± 0.9 days
same,Mean TTWw ± SEM,[3]; [15],9.6 ± 0.7 days
same,Nw/NG,[3]; [15],89%
same,reduction of the AUC,"[3]; Example 7, daunorubicin 3 mg/kg sc, ICRF-187 250 mg/kg IP, p<0.05",51%
same,AUC,[3]; [16],28 (± 22) mm^2×days
same,DW,[3]; [16],16.0 (± 4.0) days
same,FW,[3]; [16],13%
same,TTW,[3]; [16],10.5 (± 3.5) days
same,AUC,[3]; [17],112 (± 37) mm^2×days
same,DW,[3]; [17],18.0 (± 0.0) days
same,FW,[3]; [17],22%
same,TTW,[3]; [17],16.5 (± 0.5) days
same,AUC,[3]; [18],692 (± 115) mm^2×days
same,DW,[3]; [18],20.6 (± 0.8) days
same,FW,[3]; [18],88%
same,TTW,[3]; [18],8.4 (± 0.6) days
same,AUC,[3]; [19],373 (± 48) mm^2×days
same,DW,[3]; [19],17.4 days
same,FW,[3]; [19],78%
same,TTW,[3]; [19],9.7 days
same,DW,[3]; [20],17.4 (± 0.6) days
same,TTW,[3]; [20],9.7 (± 0.5) days
same,AUC,[3]; [21],420 (± 206) mm^2×days
same,DW,[3]; [21],21.0 (± 4.0) days
same,FW,[3]; [21],43%
same,TTW,[3]; [21],7.0 (± 0.6) days
same,AUC,[3]; [22],927 (± 163) mm^2×days
same,DW,[3]; [22],24.9 (± 0.8) days
same,FW,[3]; [22],100%
same,TTW,[3]; [22],6.7 (± 0.6) days
same,AUC,[3]; [23],128 (± 34) mm^2×days
same,DW,[3]; [23],13.3 (± 1.2) days
same,FW,[3]; [23],75%
same,TTW,[3]; [23],17.7 (± 1.0) days
same,AUC,[3]; [24],479 (± 141) mm^2×days
same,DW,[3]; [24],19.3 (± 1.3) days
same,FW,[3]; [24],67%
same,TTW,[3]; [24],9.2 (± 1.2) days
same,AUC,[3]; [25],57 (± 57) mm^2×days
same,DW,[3]; [25],23.0 (± 0.0) days
same,FW,[3]; [25],25%
same,TTW,[3]; [25],4.0 (± 0.0) days
same,AUC,[3]; [26],662 (± 223) mm^2×days
same,DW,[3]; [26],19.4 (± 1.3) days
same,FW,[3]; [26],89%
same,TTW,[3]; [26],8.1 (± 0.5) days
same,AUC,[3]; [27],0 mm^2×days
same,FW,[3]; [27],0%
same,prevention of lesions,"[3]; daunorubicin induced lesions, ICRF-187 250 mg/kg IP three days in a row",completely prevented
same,protection by IP injection compared to IV administration,"[3]; daunorubicin induced wounds, ICRF-187 250 mg/kg",no statistically significant difference
same,"degree of protection, triple-treatment","[3]; daunorubicin, ICRF-187 62,5 or 125 mg/kg IP at 0, 3 and 6 hours",at least the same degree of protection as a single injection of 250 mg/kg ICRF-187 IP
same,protection with delayed administration,"[3]; daunorubicin, ICRF-187 administered 3 hours after",no different from the protection obtained by immediate ICRF-187 administration
same,protection with delayed administration,"[3]; daunorubicin, ICRF-187 delay 6 hours",protection was lost
same,treatment-related deaths,"[3]; mouse, in vivo",no treatment-related deaths
same,reduction in AUC,"[3]; pooled, daunorubicin 3 mg/kg SC, ICRF-187 125 mg/kg IP, p=0.0175 vs 250 mg/kg",45%
same,mean duration of wounds reduced by,[3]; [28],35%
same,mean time to wounds delayed by,[3]; [28],76%
same,mean AUC reduced by,"[3]; pooled, daunorubicin 3 mg/kg SC, single ICRF-187 250 mg/kg IP at t=0, p<0.0001",70%
same,ulcer development,[4],did not develope an ulcer
